Laboratory results: PubChem BioAssay AID1963868 (Molecular Pharmacology Branch, DTP, NCI, 2024)

Test system: KRAS PDC tumor spheroids (HUVEC+MSC), viability
Experiment: Anticancer human tumor 254851-301-R-J1-PDC patient-derived colon carcinoma cell line growth inhibition [KRAS2]
Details: for IC50: curve of first compound; for viability, T/C: stronger effect = lower value; active = viability on the fitted dose curve at most 10% of control; inactive = the rest
Method in brief: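 Combination screen of spheroid viability in tumor-cell co-cultures with endothelial (HUVEC) and mesenchymal stem cell stroma. Each agent was tested in half-log dilutions, topping at clinical Cmax or at 10 microM without a known Cmax.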

[1] = second compound 0.1 µM, first compound 0.0316 µM
[2] = second compound 0.1 µM, first compound 0.1 µM
[3] = second compound 0.1 µM, first compound 0.316 µM
[4] = second compound 0.1 µM, first compound 1 µM
[5] = second compound 0.1 µM, first compound 3.16 µM
[6] = second compound 0.316 µM, first compound 0.0316 µM
[7] = second compound 0.316 µM, first compound 0.1 µM
[8] = second compound 0.316 µM, first compound 0.316 µM
[9] = second compound 0.316 µM, first compound 1 µM
[10] = second compound 0.316 µM, first compound 3.16 µM
[11] = second compound 1 µM, first compound 0.0316 µM
[12] = second compound 1 µM, first compound 0.1 µM
[13] = second compound 1 µM, first compound 0.316 µM
[14] = second compound 1 µM, first compound 1 µM
[15] = second compound 1 µM, first compound 3.16 µM
[16] = second compound 3.16 µM, first compound 0.0316 µM
[17] = second compound 3.16 µM, first compound 0.1 µM
[18] = second compound 3.16 µM, first compound 0.316 µM
[19] = second compound 3.16 µM, first compound 1 µM
[20] = second compound 3.16 µM, first compound 3.16 µM
[21] = second compound 10 µM, first compound 0.0316 µM
[22] = second compound 10 µM, first compound 0.1 µM
[23] = second compound 10 µM, first compound 0.316 µM
[24] = second compound 10 µM, first compound 1 µM
[25] = second compound 10 µM, first compound 3.16 µM
[26] = second compound 0.1 µM, first compound 10 µM
[27] = second compound 0.316 µM, first compound 10 µM
[28] = second compound 1 µM, first compound 10 µM
[29] = second compound 3.16 µM, first compound 10 µM
[30] = second compound 10 µM, first compound 10 µM
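Note: spheroids exposed to compounds for seven days before readout.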
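Throughout, for viability, T/C: 100% = DMSO vehicle control luminescence of the spheroids.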

CC1COCCN1c1cc(-c2ccnn2C)c2ccnc(-c3ccn[nH]3)c2n1 (stereo not given) + CC1OCC2(CCN(c3cnc(Sc4ccnc(N)c4Cl)c(N)n3)CC2)C1N
303 nM: IC50 (second compound 0.1 µM)
165 nM: IC50 (second compound 3.16 µM)
315 nM: IC50 (second compound 1 µM)
152 nM: IC50 (second compound 10 µM)
inactive: viability, T/C (second compound 0.1 µM, first compound 0.01 µM) 114% | viability, T/C [1] 107% | viability, T/C [2] 75.5% | viability, T/C [3] 48.6% | viability, T/C [4] 36.4% | viability, T/C [5] 24.5% | viability, T/C (second compound 0.316 µM, first compound 0.01 µM) 90.5% | viability, T/C [6] 101% | viability, T/C [7] 83.5% | viability, T/C [8] 49.8% | viability, T/C [9] 33% | viability, T/C [10] 24.4% | viability, T/C (second compound 1 µM, first compound 0.01 µM) 88.7% | viability, T/C [11] 89.8% | viability, T/C [12] 79% | viability, T/C [13] 47.1% | viability, T/C [14] 34.6% | viability, T/C [15] 21.2% | viability, T/C (second compound 3.16 µM, first compound 0.01 µM) 69.2% | viability, T/C [16] 74.8% | viability, T/C [17] 57% | viability, T/C [18] 39.2% | viability, T/C [19] 23.1% | viability, T/C [20] 21.9% | viability, T/C (second compound 10 µM, first compound 0.01 µM) 67.1% | viability, T/C [21] 65.8% | viability, T/C [22] 58.3% | viability, T/C [23] 35.8% | viability, T/C [24] 27.2% | viability, T/C [25] 20%
323 nM: IC50 (second compound 0.316 µM)

CCNC(=O)CC1N=C(c2ccc(Cl)cc2)c2cc(OC)ccc2-n2c(C)nnc21 (stereo not given) + CC1OCC2(CCN(c3cnc(Sc4ccnc(N)c4Cl)c(N)n3)CC2)C1N
> 10000 nM: IC50 (second compound 0.1 µM) | IC50 (second compound 0.316 µM) | IC50 (second compound 1 µM) | IC50 (second compound 10 µM)
inactive: viability, T/C [1] 111% | viability, T/C [2] 103% | viability, T/C [3] 99.9% | viability, T/C [4] 95.6% | viability, T/C [5] 94.9% | viability, T/C [26] 77.2% | viability, T/C [6] 94.2% | viability, T/C [7] 108% | viability, T/C [8] 81.9% | viability, T/C [9] 89.5% | viability, T/C [10] 77.8% | viability, T/C [27] 68.5% | viability, T/C [11] 84.8% | viability, T/C [12] 83.3% | viability, T/C [13] 93.1% | viability, T/C [14] 73.9% | viability, T/C [15] 86.1% | viability, T/C [28] 65.6% | viability, T/C [16] 73% | viability, T/C [17] 69.3% | viability, T/C [18] 73% | viability, T/C [19] 67% | viability, T/C [20] 58.9% | viability, T/C [29] 42% | viability, T/C [21] 70.5% | viability, T/C [22] 67.4% | viability, T/C [23] 57.8% | viability, T/C [24] 56.5% | viability, T/C [25] 56.5% | viability, T/C [30] 50.5%
5860 nM: IC50 (second compound 3.16 µM)

Cn1nccc1Nc1nccc(-c2cc3c(s2)C(C)(C)N(CCN2CCOCC2)C3=O)n1 + CC1OCC2(CCN(c3cnc(Sc4ccnc(N)c4Cl)c(N)n3)CC2)C1N
1720 nM: IC50 (second compound 0.1 µM)
469 nM: IC50 (second compound 3.16 µM)
inactive: viability, T/C [1] 97.6% | viability, T/C [2] 98.1% | viability, T/C [3] 100% | viability, T/C [4] 86.9% | viability, T/C [6] 83.8% | viability, T/C [7] 86.8% | viability, T/C [8] 85.3% | viability, T/C [9] 69.8% | viability, T/C [10] 31.1% | viability, T/C [11] 77.4% | viability, T/C [12] 83.7% | viability, T/C [13] 81.8% | viability, T/C [14] 61.1% | viability, T/C [15] 11.1% | viability, T/C [16] 68% | viability, T/C [17] 77.5% | viability, T/C [18] 75.8% | viability, T/C [21] 64% | viability, T/C [22] 79.5% | viability, T/C [23] 63% | viability, T/C [24] 10.3%
1810 nM: IC50 (second compound 0.316 µM)
422 nM: IC50 (second compound 10 µM)
active: viability, T/C [5] 8.68% | viability, T/C [26] 4.09% | viability, T/C [27] 4.06% | viability, T/C [28] 3.68% | viability, T/C [19] 4.42% | viability, T/C [20] 2.57% | viability, T/C [29] 1.97% | viability, T/C [25] 3.18% | viability, T/C [30] 2.52%
1290 nM: IC50 (second compound 1 µM)
